Columns and labels:
HuT78 = test: Cellular cytotoxicity against HUT-78 cells.; format: functional; conditions: Homo sapiens
[1] = tested on: Human immunodeficiency virus 1; test: Antiretroviral activity against HIV-1 infected HUT-78 cells.; format: functional, organism-based; conditions: Human immunodeficiency virus 1, HuT78; read-out: Log 1/EC50 (converted)
[2] = tested on: Human immunodeficiency virus 2; test: Antiretroviral activity against HIV-2 infected HUT-78 cells.; conditions: Human immunodeficiency virus 2, HuT78; read-out: Log 1/EC50 (converted)
[3] = tested on: Human immunodeficiency virus 1; test: Inhibition of syncytium formation using HIV-1 IIIB strain gaint cell inhibition assay.; format: functional, organism-based; conditions: read-out: Log 1/EC50 (converted)

EC50 [1] [nM] | EC50 [2] [nM] | EC50 [3] [nM] | SMILES | CC50 (HuT78) [nM]
372 | 708 |  | NCCCNCCNCCCNCc1ccc(CN2CCCNCCNCCCNCC2)cc1 | 445000
1350 |  |  | c1ccc(CN2CCCNCCNCCCNCC2)c(CN2CCCNCCNCCCNCC2)c1 | 169000
7.94 | 56.2 | 12.6 | c1cc(CN2CCCNCCNCCCNCC2)ccc1CN1CCCNCCNCCNCCC1 | 500000
398 |  |  | c1cc(CCCN2CCCNCCNCCCNCC2)ccc1CCCN1CCCNCCNCCCNCC1 | 283000
7.59 | 1.29 | 33.1 | Cc1cc(CN2CCCNCCNCCCNCC2)c(C)cc1CN1CCCNCCNCCCNCC1 | 250000
9120 |  |  | c1cc(CN2CCCNCCCNCCCNCCC2)ccc1CN1CCCNCCCNCCCNCCC1 | 49000
7.08 | 7.94 | 13.2 | COc1cc(CN2CCCNCCNCCCNCC2)c(OC)cc1CN1CCCNCCNCCCNCC1 | 250000
166 | 234 |  | c1cc(CN2CCNCCCNCCNCC2)ccc1CN1CCNCCCNCCNCC1 | 216000
7760 |  | 33900 | CCN1CCCN(CC)CCN(Cc2ccc(CN3CCCN(CC)CCN(CC)CCCN(CC)CC3)cc2)CCCN(CC)CC1 | 342000
501 | 676 |  | c1cc(CC2CNCCNCCCNCCNC2)ccc1CC1CNCCNCCCNCCNC1 | 406000
324 | 646 |  | c1cc(CN2CCCNCCCNCCNCCC2)cc(CN2CCCNCCCNCCNCCC2)c1 | 403000
85.1 | 53.7 |  | Brc1cc(CN2CCCNCCNCCCNCC2)cc(CN2CCCNCCNCCCNCC2)c1 | 192000
158 |  |  | C1CNCCNCCCN[C@H]([C@@H]2CNCCCNCCNCCCN2)CNC1 | 369000
692 | 708 |  | C(CCCN1CCCNCCNCCCNCC1)CCN1CCCNCCNCCCNCC1 | 307000
2750 |  |  | c1cc(CN2CCCNCCCNCCCNCC2)cc(CN2CCCNCCCNCCCNCC2)c1 | 191000
33.9 | 41.7 | 4170 | c1cc(CN2CCCNCCNCCCNCC2)cc(CN2CCCNCCNCCCNCC2)c1 | 422000
31.6 | 70.8 |  | c1ncc(CN2CCCNCCNCCCNCC2)cc1CN1CCCNCCNCCCNCC1 | 395000
204 | 24.5 | 316 | c1ccc(-c2cc(CN3CCCNCCNCCCNCC3)cc(CN3CCCNCCNCCCNCC3)c2)cc1 | 198000
97.7 | 66.1 | 8130 | c1cc(CN2CCCNCCNCCCNCC2)nc(CN2CCCNCCNCCCNCC2)c1 | 409000

EC50 [1] [nM] | EC50 [2] [nM] | EC50 [3] [nM] | SMILES | CC50 (HuT78) [nM]
158 | 79.4 |  | c1ccc2c(CN3CCCNCCNCCCNCC3)cc(CN3CCCNCCNCCCNCC3)cc2c1 | 208000
138 |  | 12300 | C1CNCCNCCCN(CCCN2CCCNCCNCCCNCC2)CCNC1 | 622000
10.7 | 2.45 | 331 | Clc1cc(CN2CCCNCCNCCCNCC2)c(Cl)cc1CN1CCCNCCNCCCNCC1 | 59000
16600 |  |  | c1cc(CN2CCCNCCCNCCCNCCC2)cc(CN2CCCNCCCNCCCNCCC2)c1 | 193000
7.94 | 7.94 | 31.6 | Fc1c(F)c(CN2CCCNCCNCCCNCC2)c(F)c(F)c1CN1CCCNCCNCCCNCC1 | 48000
316 |  |  | c1cc(CN2CCCNCCNCCNCCC2)ccc1CN1CCCNCCCNCCCNCCC1 | 121000
25.1 | 58.9 |  | c1cc(CN2CCCNCCNCCNCCC2)ccc1CN1CCCNCCNCCNCCC1 | 500000
200 | 2.51 | 6030 | Clc1c(Cl)c(CN2CCCNCCNCCCNCC2)c(Cl)c(CN2CCCNCCNCCCNCC2)c1Cl | 12000
11200 |  |  | C1CNCCNCCCN(CCN2CCCNCCNCCCNCC2)CCNC1 | 404000
55 | 38.9 | 63.1 | c1ccc2c(CN3CCCNCCNCCCNCC3)ccc(CN3CCCNCCNCCCNCC3)c2c1 | 56000
64.6 | 72.4 | 3240 | O=[N+]([O-])c1cc(CN2CCCNCCNCCCNCC2)ccc1CN1CCCNCCNCCCNCC1 | 203000
138 | 245 |  | Brc1c(CN2CCCNCCNCCCNCC2)cccc1CN1CCCNCCNCCCNCC1 | 144000
 |  |  | c1cc(CN2CCCNCCNCCCNCC2)ccc1CN1CCCNCCCNCCCNCC1 | 225000
40.7 | 56.2 | 64.6 | O=[N+]([O-])c1cc(CN2CCCNCCNCCCNCC2)cc(CN2CCCNCCNCCCNCC2)c1 | 45000
85.1 | 759 |  | c1cc(CN2CCCNCCCNCCNCCC2)cc(CN2CCCNCCNCCCNCC2)c1 | 422000
40.7 | 61.7 |  | c1cc(CN2CCNCCCNCCNCC2)cc(CN2CCNCCCNCCNCC2)c1 | 192000
34.7 | 74.1 |  | Fc1c(CN2CCCNCCNCCCNCC2)cccc1CN1CCCNCCNCCCNCC1 | 202000
3.98 | 6.03 | 47.9 | c1cc(CN2CCCNCCNCCCNCC2)ccc1CN1CCCNCCNCCCNCC1 [PLERIXAFOR] | 241000

Reference: ChEMBL document CHEMBL1128563, “Quantitative structural activity relationship study of bis-tetraazacyclic compounds. A novel series of HIV-1 and HIV-2 inhibitors” (J Med Chem, 1995)
